What was measured:
[1] = Long-term stability studies (storage at room temperature); assay type: physicochemical; settings: hydrogel-entrapped enzyme, at least three months
Method: Printed enzyme samples were stored in a closed, dark container at room temperature for time periods ranging from 7 days up to 3 months. Image acquisition and analysis was performed as described previously for the entrapment and proteinase K degradation studies. The intensity of each sample was measured and presented as a ratio of the corresponding control image (freshly printed).

proteinase K = proteinase K (Parengyodontium album, UniProt P06873); assay: Protease protection studies; assay type: physicochemical; settings: 2 hours
Sequence of proteinase K (P06873 106-384, species assumed): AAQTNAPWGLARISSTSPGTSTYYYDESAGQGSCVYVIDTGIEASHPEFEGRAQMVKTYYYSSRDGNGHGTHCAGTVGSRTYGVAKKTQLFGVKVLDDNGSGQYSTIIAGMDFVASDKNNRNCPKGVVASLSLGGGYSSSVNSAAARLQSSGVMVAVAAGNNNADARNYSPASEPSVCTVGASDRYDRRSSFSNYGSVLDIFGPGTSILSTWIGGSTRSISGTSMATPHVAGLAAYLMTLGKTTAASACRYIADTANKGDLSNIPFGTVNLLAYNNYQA
Method: 10 μL of a 2 mg/mL proteinase K solution (prepared in 10 mM PBS and 1 mM CaCl2) was pipetted onto the printed enzyme samples both with and without hydrogel encapsulation. The samples were incubated in a closed container for 2 hours at room temperature, after which substrate solutions were pipetted onto the treated samples at the volumes listed in Table 1. Image acquisition and analysis was performed as described for the entrapment studies. The intensity of each sample was measured and presented as a ratio of the corresponding control image (untreated with protease).

TEM-1 β-lactamase [2] = target: T1, TEM-1 β-lactamase (Escherichia coli, UniProt P62593); assay type: biochemical; settings: promiscuous aggregating inhibitors
T1 sequence (P62593 24-286 limits assumed): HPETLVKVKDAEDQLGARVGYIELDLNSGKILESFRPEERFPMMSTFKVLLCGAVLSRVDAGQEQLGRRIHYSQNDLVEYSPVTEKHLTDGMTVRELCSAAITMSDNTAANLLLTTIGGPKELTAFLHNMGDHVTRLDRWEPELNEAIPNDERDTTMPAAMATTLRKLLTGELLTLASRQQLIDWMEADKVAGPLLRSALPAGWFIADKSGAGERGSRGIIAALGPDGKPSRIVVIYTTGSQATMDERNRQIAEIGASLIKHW

TEM-1 β-lactamase [3] = target: T1, TEM-1 β-lactamase; assay type: biochemical; settings: promiscuous aggregating inhibitors, printed hydrogel array, starting concentration 100 μM
Method: Images were taken with a Canon DSLR camera (operated in manual focus mode without flash) after 25 min. […] Extracted images were inverted and converted to 8 bit grayscale images. […] Calculation of IC50 values was carried out in OriginPro by plotting the calculated percentage inhibition against the added inhibitor concentration.
Intensity distributions are measured using dynamic light scattering (normalized to maximum intensity).

[4] = Aggregate size and polydispersity by dynamic light scattering; assay type: physicochemical; settings: 100 μM solutions, DLS
Method: Following, to assess the capacity of the printed hydrogels to differentiate between specific and non-specific inhibition, the confirmed promiscuous inhibitors rottlerin and BIS IX (both kinase inhibitors) and tetraiodophenolphthalein (TIPT, another established aggregate forming compound) were tested against TEM-1 β-lactamase (an isoform of β-lactamase) both in solution (modeling a conventional microplate assay) and using a printed hydrogel array. […] In this way, the size selectivity of the printed hydrogel layer excludes the promiscuous inhibitors from accessing the enzyme encapsulated in the hydrogel and thus avoids the false positive hits observed in solution assays. […] Intensity distributions are measured using dynamic light scattering (normalized to maximum intensity).

Molecule | Activity retained after storage [1] [%] | Activity retained after proteinase K (proteinase K; enzyme printed directly on nitrocellulose without hydrogel (printed alone)) [%] | Activity retained after proteinase K (proteinase K; enzyme printed with POH in the absence of gel formation) [%] | Inhibition of β-lactamase in the solution-based assay (TEM-1 β-lactamase [2]) | Inhibition of β-lactamase in the hydrogel-based assay (TEM-1 β-lactamase [3]) | Aggregate size [4] [nm] | Polydispersity [4]
alkaline phosphatase | ~100 | ~40 | > 80 |  |  |  | 
CC(=O)c1c(O)c(C)c(O)c(Cc2c(O)c3c(c(C(=O)/C=C/c4ccccc4)c2O)OC(C)(C)C=C3)c1O [Rottlerin, rottlerin] |  |  |  | inhibited β-lactamase | no specific inhibition | 188 ± 1 | 0.24 ± 0.01
Cn1cc(C2=C(c3cn(CCCSC(=N)N)c4ccccc34)C(=O)NC2=O)c2ccccc21 [BIS IX] |  |  |  | inhibited β-lactamase | no specific inhibition | 365 ± 9 | 0.36 ± 0.02
